How the values were obtained:
Format in all cases: in vivo
wild-type plants [1] = experiment: Nicosulfuron selection medium, wild-type wheat plants
From the text: 30 days later, twelve seedlings survived, and 9 of them had base mutations at the TaALS-S2 site. The efficiency of selecting the ALS-S2 site mutant plants using nicosulfuron selection medium was 75% (9/12).

wild-type plants [2] = experiment: Nicosulfuron selection medium, wild-type rice plants; details: 0.0065 PPM Nicosulfuron
Protocol: The pH-nCas9-PBE-OsALS-S1/S2 binary vector was transformed into Agrobacterium strain AGL1 by electroporation. Agrobacterium-mediated transformation, tissue culture and regeneration in rice cultivar Zhonghua 11 were performed according to Shan et al. (Shan, Q. et al. Targeted genome modification of crop plants using a CRISPR-Cas system. Nat. Biotechnol. 31, 686-688 (2013)). Hygromycin selection (50 μg/ml) was used during tissue culture. (This experiment is a proof of concept, so the plants were selected with hygromycin first, then by nicosulfuron. The objective was to first obtain transgenic plants and then screen for herbicide resistance). […] Four seedlings survived after 14 days. DNA was extracted from the four seedlings. The ALS gene was amplified by PCR, sequenced to determine the mutant genotype.

[3] = test system: mutant plant with heterozygous P165L substitution on ZmALS2; experiment: Herbicide resistance of ZmALS-P165 edited corn plant
From the text: To establish the co-editing system in corn, acetolactate synthase site corresponding TaALS-P173 was targeted to test the herbicide resistance. It has been reported single edited allele on ZmALS2 could confer plants herbicide resistance (Svitashev et al, 2016). So the binary vector targeting ZmALS-P165 was transformed to immature embryos (ZmALS-P165 site is conserved in both ZmALS1 and ZmALS2). Three independent mutants were obtained from the regenerated plants and their genotypes are same.

Row | SMILES | survival of wild-type plants on selection medium (wild-type plants [1]) | survival of wild-type plants on selection medium (wild-type plants [2]) | resistance of mutant corn plant to the herbicide [3]
1 | COc1cc(OC)nc(NC(=O)NS(=O)(=O)c2ncccc2C(=O)N(C)C)n1 [Nicosulfuron] | unable to survive | cannot survive | –
2 | COC(=O)c1ccc(CNS(C)(=O)=O)cc1S(=O)(=O)NC(=O)Nc1nc(OC)cc(OC)n1 [Mesosulfuron-methyl] | – | – | showed resistance
